Assay results: article PMC3480206 (Future microbiology, 2012)
Read-outs that look alike come from different tables or passages of the source.

Experiments:
[1] = test system: Mycobacterium tuberculosis H37Rv; test: In vitro drug interaction, checkerboard titration by 96-well microdilution; assay type: cell-based
Mtb [2] = conditions: EBA study; cited from earlier work
Mtb [3] = conditions: cited from earlier work
Mtb [4] = conditions: cited from earlier work; remark: listed apart in the source
[5] = test system: Mtb gene clusters GC82 and GC120, iniBAC operon; conditions: cited from earlier work
Mtb [6] = conditions: at its MIC and at doses used to treat adult pulmonary TB; cited from earlier work
[7] = PK evaluation on coadministration with second-line drugs; conditions: mice, SQ109 and MXF coadministered
Mtb [8] = conditions: cited from earlier work; remark: listed apart in the source
Mtb [9] = conditions: cited from earlier work; remark: listed apart in the source
[10] = test system: Mycobacterium tuberculosis H37Rv; conditions: cited from earlier work
Mtb [11] = conditions: versus linezolid; cited from earlier work
Mtb [12] = conditions: mouse model of TB; cited from earlier work
[13] = in vivo; cited from earlier work
Mtb [14] = conditions: in vitro; cited from earlier work
Mtb [15] = conditions: cited from earlier work; remark: listed apart in the source

With CC(C)/N=c1\cc2n(-c3ccc(Cl)cc3)c3ccccc3nc-2cc1Nc1ccc(Cl)cc1 [CFZ, Clofazimine, reference compound] the MIC ([1]; Mycobacterium tuberculosis, H37RV, read-out: MIC Alone) was 0.5 µg/mL and the “MIC Combination” value ([1]; checkerboard SQ109 + CFZ, Mtb H37Rv) was 0.062 µg/mL.
In the case of C[C@]1(COc2ccc(N3CCC(Oc4ccc(OC(F)(F)F)cc4)CC3)cc2)Cn2cc([N+](=O)[O-])nc2O1 [Delamanid], the early bactericidal activity (Mtb [2]) is listed as “showed activity”.
In the case of CC[C@@H](CO)NCCN[C@@H](CC)CO [EMB, ethambutol], the “MIC on Mtb” value (Mtb [3]) is listed as 5 to 7 µg/mL, the “Effect on acid-fastness of Mtb” value (Mtb [4]) is listed as “Decreases” and the “Activity on Mtb gene clusters GC82 and GC120” value [5] is listed as “Upregulates”. The bacteriostatic or bactericidal (Mtb [6]) was “bacteriostatic”.
In the case of COc1c(N2C[C@@H]3CCCN[C@@H]3C2)c(F)cc2c(=O)c(C(=O)O)cn(C3CC3)c12 [MXF, moxifloxacin, reference compound], the “pharmacology profile on coadministration” value [7] is given as “not affected” and the “activity in mouse models” value (Mtb [8]) is given as “comparable to INH”.
For Cc1ncc([N+](=O)[O-])n1CCO [Metronidazole], the “efficacy in mouse models of latent TB” value (Mtb [9]) is listed as “not effective”.
In the case of O=[N+]([O-])c1cn2c(n1)OC[C@@H](OCc1ccc(OC(F)(F)F)cc1)C2 [PA-824], the early bactericidal activity (Mtb [2]) is given as “showed activity”.
In the case of CO[C@H]1/C=C/O[C@@]2(C)Oc3c(C)c(O)c4c(O)c(c(/C=N/N5CCN(C)CC5)c(O)c4c3C2=O)NC(=O)/C(C)=C\C=C\[C@H](C)[C@H](O)[C@@H](C)[C@@H](O)[C@@H](C)[C@H](OC(C)=O)[C@@H]1C [RIF, rifampicin, reference compound], the “improvement of RIF activity” value [10] is listed as “eightfold”.
For CC(=O)NC[C@H]1CN(c2ccc(N3CCSCC3)c(F)c2)C(=O)O1 [Sutezolid], the “killing in ex vivo whole-blood culture test” value (Mtb [11]) is listed as “better time-dependent killing”, the “antimycobacterial activity versus linezolid” value (Mtb [12]) is listed as “better antimycobacterial activity” and the safety profile [13] is listed as “improved safety profile compared with linezolid”. For the same molecule, the “antimycobacterial activity versus linezolid” value (Mtb [14]) was “better antimycobacterial activity”.
For COc1nc2ccc(Br)cc2cc1[C@@H](c1ccccc1)[C@@](O)(CCN(C)C)c1cccc2ccccc12 [bedaquiline], the “improvement of the MIC of bedaquiline” value [10] is listed as “four- to eight-times”, the postantibiotic effect (Mtb [15]; bedaquiline with SQ109) is listed as 14 h and the postantibiotic effect (Mtb [15]; bedaquiline without SQ109) is listed as 9 h.
For COc1c(N2CCNC(C)C2)c(F)cc2c(=O)c(C(=O)O)cn(C3CC3)c12 (stereo not drawn) [gatifloxacin], the “activity in mouse models” value (Mtb [8]) is listed as “comparable to INH”.
In the case of CC(=O)NC[C@H]1CN(c2ccc(N3CCOCC3)c(F)c2)C(=O)O1 [linezolid], the early bactericidal activity (Mtb [2]) is given as “minimal killing activity”.
